What all share (experiment): growth of human tumour cells (NCI), 48 h
In experiment [1] the test system is A549 NSCLC.
The test system of experiment [2] is T-47D breast.
For experiment [3], the system named is 786-0 renal.
Experiment [4] has as its system HT29 colon.
Experiment [5] concerns ACHN renal.
For experiment [6], the system named is NCI-H460 lung.
Experiment [7] has as its system MDA-MB-231 breast.
The test system of experiment [8] is COLO 205 colon.
The test system of experiment [9] is NCI-H226 lung.
In experiment [10] the test system is OVCAR-5 ovarian.

From PubChem BioAssay (NCI) come the findings set out here.

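48-hour exposure; five concentrations; linearly interpolated endpoints. Here, GI50 denotes the concentration required for 50% inhibition of growth. At the TGI there is no net growth.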

Regarding `BrC(Br)(Br)c1cnc2ccccc2n1`, the GI50 was 1.75 µM in [1]; 1.33 µM in experiment [2]; 2.02 µM in experiment [3]; 1.06 µM in experiment [4]; 1.41 µM in [5]; 1.36 µM in [6]. Moreover, the GI50 was 1.39 µM in experiment [7], 0.735 µM in experiment [8], 3.91 µM in [9] and 2.77 µM in experiment [10]. Further, the TGI amounted to 4.66 µM in experiment [1]; 3.31 µM in experiment [2]; 5 µM in [3]; 2.67 µM in experiment [4]; 2.84 µM in experiment [5]; 4.21 µM in experiment [6]. The TGI turned out to be 3.22 µM in [7], 2.13 µM in experiment [8], 8.38 µM in [9] and 7.45 µM in experiment [10].

Turning to `CCOC(=O)N1C/C(=C/c2ccc(OC)cc2)C(=O)/C(=C/c2ccc(OC)cc2)C1`, the GI50 in experiment [1] was 2.33 µM; in [2], 3.79 µM; in experiment [3], 1.79 µM; in experiment [4], 0.79 µM; in experiment [5], 1.96 µM; in [6] it was 3.13 µM. In addition, the GI50 was 2.38 µM in experiment [7], 2.18 µM in [8], 3.29 µM in experiment [9] and 4.23 µM in experiment [10]. Moreover, the TGI in experiment [1] is 6.96 µM; in experiment [2] it was > 100 µM; in experiment [3], 3.4 µM; in experiment [4], 2.53 µM; in experiment [5] it was 5.18 µM; in experiment [6], > 100 µM. In addition, the TGI was determined as 6.48 µM in experiment [7], 5.28 µM in experiment [8], 18.9 µM in [9] and 21.6 µM in experiment [10].

Take `Oc1ccc(Br)cc1/C=N/NC(=S)NC12CC3CC(CC(C3)C1)C2`: the GI50 in experiment [1] is 1.82 µM; in experiment [2], 2.15 µM; in experiment [3] it was 2.32 µM; in experiment [4], 2.02 µM; in experiment [5] it was 2.08 µM; in experiment [6] it was 0.645 µM. Besides, the GI50 in [7] was 1.95 µM; in [8], 3.44 µM; in experiment [9], 1.95 µM; in experiment [10], 1.89 µM. For the same molecule, the TGI in experiment [1] was found to be 5.07 µM; in [2] it was 8.33 µM; in [3], 5.05 µM; in [4], 3.93 µM; in experiment [5], 10.3 µM; in experiment [6], 2.17 µM. Besides, the TGI came to 5.54 µM in experiment [7], 11.1 µM in experiment [8], 4.8 µM in experiment [9] and 4.78 µM in experiment [10].

In the case of `Cc1ccccc1-n1c(/C=C\c2ccccn2)nc2ccccc2c1=O`, the GI50 in experiment [1] was 26 µM; in [2], 5.99 µM; in [3], 20.6 µM; in experiment [4], 19.7 µM; in experiment [5], 12.8 µM; in experiment [6] it was 9.29 µM. The GI50 in experiment [7] was 4.69 µM; in experiment [8] it was 9.65 µM; in [9], 28.8 µM; in [10], 19.5 µM. Besides, the TGI in experiment [1] is > 100 µM; in experiment [2], 64.8 µM; in [3], 64.4 µM; in experiment [4], > 100 µM; in experiment [5], > 100 µM; in experiment [6] it was 42.1 µM. Besides, the TGI is 59.2 µM in experiment [7], 28.5 µM in [8], > 100 µM in experiment [9] and > 100 µM in [10].

With `COC(=O)c1c2c(c(C)[n+]([O-])c1C)C(=O)C(NCc1cccc(OC)c1)=CC2=O`, the GI50 was 2.35 µM in experiment [1]; 2.23 µM in experiment [2]; 3.6 µM in experiment [3]; 2.51 µM in experiment [4]; 2.84 µM in experiment [5]; 1.71 µM in experiment [6]. Moreover, the GI50 is 2.21 µM in experiment [7], 1.1 µM in [8], 3.32 µM in experiment [9] and 2.05 µM in experiment [10]. For the same molecule, the TGI was 9.36 µM in experiment [1]; 5.47 µM in experiment [2]; 27.1 µM in experiment [3]; > 100 µM in [4]; 10.2 µM in experiment [5]; 8 µM in experiment [6]. Besides, the TGI in experiment [7] was found to be 6.24 µM; in experiment [8], 2.86 µM; in experiment [9], 13 µM; in experiment [10], 4.76 µM.

As to `CS(=O)c1ccc(-c2nc(-c3ccc(F)cc3)c(-c3ccncc3)[nH]2)cc1` (stereo not given), the GI50 in [1] was 35 µM; in [2] it was 18 µM; in experiment [3], 16.8 µM; in experiment [4] it was 10.7 µM; in [5], 21.4 µM; in experiment [6] it was 33.5 µM. Besides, the GI50 was 48.4 µM in [7], 14.7 µM in experiment [8], 24.7 µM in [9] and 55 µM in [10]. The TGI in [1] was > 100 µM; in experiment [2] it was > 100 µM; in experiment [3], 38.8 µM; in [4], > 89.4 µM; in [5], > 100 µM; in [6], > 100 µM. Also, the TGI in experiment [7] is > 100 µM; in [8], 50.2 µM; in experiment [9], > 73.1 µM; in experiment [10], > 100 µM.
